Measured values: the NIST ThermoML archive (doi:10.1021/je100583z)
Numbers after ± are expanded uncertainties.

Details: Liquid, Closed cell (Static) method

Row | vapor or sublimation pressure (278.15 K) | vapor or sublimation pressure (288.15 K) | vapor or sublimation pressure (298.15 K) | vapor or sublimation pressure (308.15 K) | vapor or sublimation pressure (318.15 K) | vapor or sublimation pressure (328.15 K) | Structure (SMILES)
1 | 234 ± 1 kPa | 327 ± 1 kPa | 451 ± 1 kPa | 611 ± 1 kPa | 805 ± 2 kPa | 1040 ± 2 kPa | FC(C(F)(F)F)C(F)(F)F [1,1,1,2,3,3,3-heptafluoropropane]
2 | 3960 ± 8 kPa | 5080 ± 10 kPa | 6425 ± 13 kPa | – | – | – | O=C=O [carbon dioxide]
